{"source": "PubChem BioAssay AID1259411", "about": "(Chemical Carcinogenesis Research Information System (CCRIS), 2018)", "tested_on": "rodent carcinogenicity bioassays, tumor incidence", "assay": "CCRIS carcinogenicity studies", "how_it_was_run": "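Archive of carcinogenicity, mutagenicity, tumor promotion and tumor inhibition results drawn from journals, NCI reports and other sources, expert-reviewed; covers 1985-2011 and is no longer updated.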", "note": "Calls of active or inactive are those of the source. The rule behind the calls is not given here."}
{"smiles": "c1ccc2c(c1)cc1ccc3cccc4ccc2c1c34", "values": [{"measurement": "carcinogen call", "setting": "Species: MOUSE, Strain/Sex: SWISS/FEMALE, Route: DERMAL, Dose: 0, 2.2, 6.6, 20 NMOL IN 50 µL ACETONE 2/WK FOR 48 WK (STUDY DURATION: 61 WK), Dose: 0, 2.2, 6.6, 20 NMOL IN 50 µL ACETONE 2/WK FOR 48 WK (STUDY DURATION: 61 WK), Tumor Site: Type of Lesion: SKIN: PAPILLOMA, SKIN: SQUAMOUS CELL CARCINOMA", "value": "active; positive"}, {"measurement": "carcinogen call", "setting": "Species: MOUSE, Strain/Sex: SWISS/FEMALE, Route: DERMAL, Dose: 0, 22.2, 66.6, 200 NMOL IN 50 µL ACETONE 2/WK FOR 48 WK (STUDY DURATION: 61 WK), Dose: 0, 22.2, 66.6, 200 NMOL IN 50 µL ACETONE 2/WK FOR 48 WK (STUDY DURATION: 61 WK), Tumor Site: Type of Lesion: SKIN: SQUAMOUS CELL CARCINOMA", "value": "active; positive"}, {"measurement": "carcinogen call", "setting": "Species: MOUSE, Strain/Sex: SWISS/FEMALE, Route: DERMAL, Dose: 0.01-0.5%, 3/WK, Tumor Site: Type of Lesion: INTEGUMENTARY SYSTEM (SKIN): CARCINOMA, PAPILLOMA", "value": "active; positive"}, {"measurement": "carcinogen call", "setting": "Species: MOUSE, Strain/Sex: SWISS/FEMALE, Route: DERMAL, Dose: 0.1-9 UG, 3/WK FOR < 700 D, Tumor Site: Type of Lesion: INTEGUMENTARY SYSTEM (SKIN)", "value": "active; positive"}, {"measurement": "carcinogen call", "setting": "Species: MOUSE, Strain/Sex: WILDTYPE/MALE, Route: GAVAGE, Dose: 0, 13, 39 MG/KG BW IN 0.1 ML SOY OIL 3/WK FOR 13 WK (STUDY DURATION: 291 D), Dose: 0, 13, 39 MG/KG BW IN 0.1 ML SOY OIL 3/WK FOR 13 WK (STUDY DURATION: 291 D), Tumor Site: Type of Lesion: LYMPHATIC SYSTEM: LYMPHOMA, FORESTOMACH: TUMOR", "value": "active; positive"}, {"measurement": "carcinogen call", "setting": "Species: Mouse, Strain/Sex: 129 x MF1 Gstp-null (14-15 males and females), Route: Intraperitoneal, Dose: 200 mg/kg, once, study duration 5 mo, Tumor Site: Type of Lesion: Lung: adenoma (incidence 71% vs 27% in controls, multiplicity 3.0 vs 0.3 in controls)", "value": "inactive; negative"}, {"measurement": "carcinogen call", "setting": "Species: Mouse, Strain/Sex: 129 x MF1 wild type (14-16 males and females), Route: Intraperitoneal, Dose: 200 mg/kg, once, study duration 5 mo, Tumor Site: Type of Lesion: Lung: adenoma (incidence 29% vs 25% in controls, multiplicity 0.4 vs 0.3 in controls)", "value": "inactive; negative"}, {"measurement": "carcinogen call", "setting": "Species: RABBIT, Route: DERMAL, Dose: 0.001-0.5%, 5/WK, Tumor Site: Type of Lesion: INTEGUMENTARY SYSTEM (SKIN)", "value": "active; positive"}, {"measurement": "carcinogen call", "setting": "Species: RABBIT, Route: DERMAL, Tumor Site: Type of Lesion: INTEGUMENTARY SYSTEM (SKIN): PAPILLOMA, CARCINOMA", "value": "active; positive"}, {"measurement": "carcinogen call", "setting": "Species: RAT, Route: INTRATRACHEAL, Dose: 0.0005-2.5 MG, 1/MO FOR 10 MO, OBSERVED 2 YR, Tumor Site: Type of Lesion: LUNG", "value": "active; positive"}, {"measurement": "carcinogen call", "setting": "Species: RAT, Route: SUBCUTANEOUS, Dose: 0.05, 0.1, 0.5, 1.0 MG, SINGLE DOSE, Tumor Site: Type of Lesion: INJECTION SITE", "value": "active; positive"}, {"measurement": "carcinogen call", "setting": "Species: RAT, Route: SUBCUTANEOUS, Tumor Site: Type of Lesion: INJECTION SITE", "value": "active; positive"}, {"measurement": "carcinogen call", "setting": "Species: RAT, Strain/Sex: F344/MALE, Route: LUNG IMPLANT, Dose: 0, 50, 100, 200 UG IN BEESWAX/TRICAPRYLIN INTO LEFT LUNG ONCE (STUDY DURATION: 100 WK), Dose: 0, 50, 100, 200 UG IN BEESWAX/TRICAPRYLIN INTO LEFT LUNG ONCE (STUDY DURATION: 100 WK), Tumor Site: Type of Lesion: LUNG: SQUAMOUS CELL CARCINOMA", "value": "active; positive"}, {"measurement": "carcinogen call", "setting": "Species: RAT, Strain/Sex: F344/MALE, Route: PULMONARY IMPLANT, Dose: 0, 50, 100, 200 UG IN 50 µL BEESWAX/TRICAPRYLIN IMPLANTED FOR UP TO 100 WK (STUDY DURATION: 100 WK), Dose: 0, 50, 100, 200 UG IN 50 µL BEESWAX/TRICAPRYLIN IMPLANTED FOR UP TO 100 WK (STUDY DURATION: 100 WK), Tumor Site: Type of Lesion: LUNG: TUMOR", "value": "active; positive"}, {"measurement": "carcinogen call", "setting": "Species: RAT, Strain/Sex: F344/MALE, Route: SUBCUTANEOUS IMPLANT, Dose: 0, 8, 40, 200, 1000 UG IN 50 µL BEESWAX/TRICAPRYLIN IMPLANTED FOR UP TO 45 WK (STUDY DURATION: 45 WK), Dose: 0, 8, 40, 200, 1000 UG IN 50 µL BEESWAX/TRICAPRYLIN IMPLANTED FOR UP TO 45 WK (STUDY DURATION: 45 WK), Tumor Site: Type of Lesion: IMPLANT SITE: TUMOR", "value": "active; positive"}, {"measurement": "carcinogen call", "setting": "Species: RAT, Strain/Sex: OSBORNE-MENDEL/FEMALE, Route: INTRAPULMONARY IMPLANT, Dose: 0, 0.03, 0.1, 0.3 MG IN BEESWAX AND TRIOCTANOIN IMPLANTED IN LUNG (STUDY DURATION: 141 WK), Dose: 0, 0.03, 0.1, 0.3 MG IN BEESWAX AND TRIOCTANOIN IMPLANTED IN LUNG (STUDY DURATION: 141 WK), Tumor Site: Type of Lesion: LUNG: CARCINOMA", "value": "active; positive"}, {"measurement": "carcinogen call", "setting": "Species: RAT, Strain/Sex: OSBORNE-MENDEL/FEMALE, Route: LUNG IMPLANT, Dose: 0, 0.1, 0.3, 1.0 MG IN BEESWAX/TRIOCTANOIN (STUDY DURATION: LIFETIME), Dose: 0, 0.1, 0.3, 1.0 MG IN BEESWAX/TRIOCTANOIN (STUDY DURATION: LIFETIME), Tumor Site: Type of Lesion: LUNG: EPIDERMOID CARCINOMA, PLEOMORPHIC SARCOMA", "value": "active; positive"}, {"measurement": "carcinogen call", "setting": "Species: RAT, Strain/Sex: SPRAGUE-DAWLEY/FEMALE, Route: INJECTION, Dose: 0, 0.25, 1 UMOL PER MAMMARY GLAND (STUDY DURATION: 24 WK), Dose: 0, 0.25, 1 UMOL PER MAMMARY GLAND (STUDY DURATION: 24 WK), Tumor Site: Type of Lesion: MAMMARY GLAND: TUMOR", "value": "active; positive"}, {"measurement": "carcinogen call", "setting": "Species: RAT, Strain/Sex: SPRAGUE-DAWLEY/FEMALE, Route: INTRAVENOUS, Dose: 39 MG/KG, SINGLE DOSE, Tumor Site: Type of Lesion: MAMMARY GLAND: CARCINOMA", "value": "active; positive"}, {"measurement": "carcinogen call", "setting": "Species: RAT, Strain/Sex: SPRAGUE-DAWLEY/FEMALE, Route: INTRAVENOUS, Tumor Site: Type of Lesion: MAMMARY GLAND: CARCINOMA", "value": "active; positive"}, {"measurement": "carcinogen call", "setting": "Species: RAT, Strain/Sex: STRAIN-CD/FEMALE, Route: GAVAGE, Dose: 0, 50 UMOL IN 0.5 ML TRIOCTANOIN 1/WK FOR 8 WK (STUDY DURATION: 49 WK), Tumor Site: Type of Lesion: MAMMARY GLAND: FIBROADENOMA, DESMOPLASTIC ADENOMA, ADENOCARCINOMA", "value": "active; positive"}]}
